Measured values: EP3360550A1, “MOLECULES AND PHARMACEUTICAL COMPOSITIONS, IN PARTICULAR FOR TREATING A GENETIC BLOOD DISORDER” (Université de La Réunion, priority 2017, dated 2018)

How the values were obtained:
RBCs = test: Control of hemolysis (RBC count with CASY Cell Counter and Analyzer); type: cell-based; conditions: for decrease of RBC concentration compared to vehicle (DMSO) alone: 0.1 mM, 30 min at room temperature; for RBCs/ml (x10^6): RBCs at 6x10^6 cells/ml incubated with molecule at 0.1 mM for 30 min at room temperature
Protocol: At the end of the 30 min of incubation with the molecules, the number of RBC for the control of hemolysis was measure by using CASY® Cell Counter and Analyzer.
For hemolysis assays, RBCs were suspended at 6x10^6 cells/ml in the Hanks/0.4% BSA buffer and the concentration measured accurately using the CASY® Cell Counter and Analyzer. RBCs were then incubated or not with solutions comprising either Molecule 1, Molecule 2 or Molecule 3 at 0.1 mM or DMSO, for 30 min at room temperature. After this incubation time cell concentration was measured again using CASY® Cell Counter and Analyzer (Table 1). If hemolysis occurs during this incubation time it will be reflected by a decrease in the RBC concentration.

laminin 521 = test: Red blood cell adhesion to laminin 521 under flow conditions; type: cell-based, human; conditions: for RBC adhesion to laminin: RBCs from sickle cell disease patients incubated with molecule at 0.1 mM for 30 min at room temperature, 3 blood samples, Figure 1; for inhibition of RBC adhesion to laminin (dose effect): increasing concentrations 50, 100 and 200 µM, same conditions as in Example 1, Figure 2
Protocol: Red blood cell adhesion to laminin 521 was measured under flow conditions using Vena8 Endothelial+™ biochips (internal channel dimensions: length 20 mm, width 0.8 mm, height 0.12 mm) and ExiGo™ Nanopumps (Cellix Ltd, Dublin, Ireland). Three different solutions were prepared with either Molecule 1, Molecule 2 or Molecule 3 (0.1 mM) by solubilizing Molecule 1, 2 or 3 using DMSO. Recombinant human laminin 521 (BioLamina) at 5 ng/µl was immobilized on the internal surface of the biochips at 4°C overnight. RBCs from sickle cell disease patients were suspended at 5x10^7 cells/ml in Hanks balanced salt solution, without calcium chloride and magnesium sulfate (Sigma-Aldrich) supplemented with 0.4% BSA, and incubated with the solution comprising either Molecule 1, Molecule 2 or Molecule 3 at 0.1 mM or DMSO for 30 min at room temperature (20°C) and perfused through the biochip channels for 10 min at a shear stress of 0.5 dyn/cm^2 followed by a washout at the same shear stress with the buffer alone for 30 min. Five minutes washouts with the Hanks/0.4% BSA buffer were performed at 1, 2, 3, 4 and 5 dyn/cm^2. After each wash, adherent RBCs were counted in 7 representative areas along the centerline of each channel using the AxioObserver Z1 microscope and ZEN analysis software (Carl Zeiss, Le Pecq, France) and the mean number of adherent RBCs was determined for each condition and each washout step (Figure 1). Images of the same 7 areas were obtained throughout each experiment. Three adhesion assays were performed with 3 different blood samples. RBC adhesion to laminin was inhibited when the RBC suspension was incubated with Molecule 2 or 3, but not Molecule 1.
To address the dose effect of the molecules, adhesion assays were performed in the same conditions as in Example 1, using the following concentrations for Molecule 1, 2 or 3: • 50, 100 and 200 µM.

SMILES | decrease of RBC concentration compared to vehicle (DMSO) alone (RBCs) | RBCs/ml (x10^6) (RBCs) | RBC adhesion to laminin (laminin 521) | inhibition of RBC adhesion to laminin (dose effect) (laminin 521)
CCC(=O)N1CCc2ccc(OCc3nc(C(=O)NCc4ccccc4)co3)cc2C1c1ccc(C)cc1 (stereo not drawn) [Molecule 1] | no decrease | 6.04 RBCs/ml (x10^6) | – | –
Cc1c(CC(=O)NC(C(=O)O)c2ccccc2)c(=O)oc2c(C)c3oc4c(c3cc12)CCCC4 (stereo not drawn) [Molecule 2] | – | 5.55 RBCs/ml (x10^6) | inhibited | increasing inhibition
O=S(=O)(O)CCCn1c(=NN=Cc2c(O)ccc3ccccc23)sc2ccccc21 [Molecule 3] | no decrease | 6.02 RBCs/ml (x10^6) | inhibited | increasing inhibition
